Experimental findings from patent publication US11400137B2, “Rectal insulin for treatment of inflammatory bowel diseases” (University of Copenhagen, priority 2016, dated 2022) are described below.

Data set [1] has as its system Car3 mRNA. The data set can be described thus: Car3 mRNA expression in colons during AOM+DSS induced intestinal inflammation. It is filed as in vivo, mouse. An excerpt: On the contrary, in the INSR KO mice with inactivated insulin receptor in the intestinal epithelial cells the expression of Car3 was not increased by inflammation. Therefore it was investigated whether Car3 is a target for intestinal insulin signalling. The methodology described in Example 2 was followed.

The test system of data set [2] is mice with DSS induced colitis (AOM+DSS). Kind of data set: AOM+DSS + rectal insulin dose-response experiment (3% DSS). It is filed as in vivo, mouse. Here is the method:
(§1) The insulin treatment regime was as follows: Each day during DSS treatment and the following first 4 days during remission (no DSS treatment) the mice were anaesthetized with isoflurane and 600 μl PBS or PBS+0.06 units human insulin was injected intra rectally. For the injection, a syringe fitted with a flexible silicone feeding needle (for rodents) was used. The mice were placed on their back with the lower end elevated for 10 minutes while still in isoflurane anaesthesia. After recovery from anaesthesia the mice were returned to their cages. The mice were weighed daily and signs of rectal bleeding scored.
In this experiment 3% DSS was used as opposed to 2% DSS in the previous experiment (FIG. 3). During induction of inflammation there is a significant (FIG. 6, t-test, p<0.05) effect of the administration of 6 u/kg insulin whereas there is no effect of only 2 u/kg administration. Specifically the weight loss (weight at the end of DSS treatment−the weight at the beginning of the DSS treatment) is 16% less in the 6 u/kg insulin group compared to the PBS group (4.3 g in the PBS group versus 3.6 g in the 6 u/kg insulin group; see FIG. 5.

How the values of data set [3] were obtained: C57BL6 mice were treated with 3% DSS in their drinking water. At the peak of inflammation, the mice were treated with rectal insulin and the blood glucose concentration measured at 0, 15, 30, 60, 90, 120 and 240 minutes. Anaesthesia was induced after the first measurement was taken at time point zero. Anaesthesia was complete at time point 15 minutes and rectal insulin instillation or PBS control instillation also begun at time point 15 minutes.

The subject of data set [4] is mice with DSS induced colitis (AOM+DSS). The data set can be described thus: AOM+DSS colitis/carcinogenesis model, rectal insulin intervention study (2% DSS). The format is in vivo, mouse.
Text: In the azoxymethane and dextran sulphate sodium (AOM/DSS) carcinogenesis/colitis model, colitis is induced by DSS which promotes AOM induced tumours. This AOM/DSS model was used on mice having intestinal specific inactivation of the insulin receptor. These mice were obtained by crossing mice (B6.129S4(FVB)-Insrtm1Khn/J) with loxP sites flanking exon 4 in the insulin receptor gene with mice (B6.Cg-Tg(Vil-cre)997Gum/J) expressing the cre-recombinase under the villin promoter (both mice were obtained commercially from the Jackson Laboratory).
The discovery that inactivated insulin signalling in the intestine augments inflammation and stimulates development of inflammation induced tumours, prompted us to the invention that insulin might be used to treat colitis. This was investigated in an intervention study. Thus, wild type mice were set up in the AOM+DSS regime and divided into two groups. One group of mice was treated with rectal administration of insulin while the control group was treated with vehicle (phosphate buffered saline; PBS).
as §1

Data set [5] concerns COX2 mRNA. Kind of data set: COX2 mRNA expression in colons of mice with AOM+DSS induced inflammation. It is filed as in vivo, mouse. An excerpt:
Cyclooxygenase 2 (COX2/PTGS2) catalyzes the first step in the synthesis of the inflammatory mediators, the prostaglandins, from arachidonic acid. The expression of COX2 is increased in the colonic epithelial cells from patients with active colonic CD and UC and is therefore a biomarker for colonic inflammation in IBD.

Data set [6] concerns colonic epithelial cells. An excerpt:
Sections of mouse colons from INSR KO mice and INSR Flox mice were stained with an antibody against the proliferation marker Ki67. Thereafter, sections of inflamed (DSS induced) colons obtained from C57BL6 mice treated with either PBS, 2 u or 6 units/kg insulin were also stained with an antibody directed against the Ki67 proliferation marker and the number of KI67 positive cells per crypt counted.

The test system of data set [7] is insulin receptor mRNA. The data set can be described thus: Colonic crypts cultured as organoids with and without insulin. It is filed as cell-based. Conditions: insulin added to organoid medium vs none (FIG. 8). Here is the method: To investigate the effect of insulin on isolated colonic epithelial cells, colonic crypts were cultured as organoids with and without the addition of insulin to the medium. […] Several mechanisms are possible. First it is possible that insulin induces differentiation of the epithelial cells and that this process increases […]. Alternatively the insulin receptor may directly stimulate its own mRNA expression by yet undescribed mechanisms. The finding is important because the positive feedback loop is expected to prolong the duration of the insulin effect on the colonic mucosa.

Where [8] appears, read: 6 u/kg insulin, p<0.05 vs PBS, Fischer's exact test.

Entries after “also recorded” stand apart in the source; their conditions may differ. Where two headings read alike, the source gives them in different places.

insulin: the “Car3 mRNA expression in colon” value in data set [1] (2 u/kg rectal insulin) is given as “not”; in data set [1] (6 u/kg rectal insulin), “significantly increased”. For the same substance, the “Rectal bleeding: No bleeding (number of mice)” value in data set [2] (2 u/kg insulin, PBS group 4) was determined as 8; in data set [2] (setting [8]), 12. Also, the “Rectal bleeding: Bleeding (number of mice)” value in data set [2] (2 u/kg insulin, PBS group 9) was 3; in data set [2] (setting [8]) it was 3. Further, in data set [2] (3% DSS, 2 and 6 u/kg rectal insulin (FIG. 7)), the “weight increase in remission phase, day 8 to day 11” value was “dose-dependent increase in weight”. Also, the “effect on weight loss during induction of inflammation” value in data set [2] (3% DSS, 2 u/kg rectal insulin) was “no effect”. Besides, the “weight loss less than in the PBS group” value in data set [2] (3% DSS, 6 u/kg rectal insulin) worked out at 16%. In data set [2] (3% DSS, 6 u/kg rectal insulin, PBS group 4.3 g, p<0.05), the “weight loss (weight at end of DSS treatment − weight at beginning)” value is on record as 3.6 g. In data set [3] (3% DSS, peak of inflammation, 0-240 minutes, rectal insulin), the “blood glucose concentration vs PBS control” value is “No significant difference”. Further, the “systemic uptake of insulin following rectal instillation” value in data set [3] (inferred from blood glucose) is “negligible”. For the same substance, the “weight loss from DSS start (day 1) to beginning of remission (day 8)” value in data set [4] (2% DSS, 0.06 units human insulin in 600 μl PBS intra rectally daily, PBS group 2.56 g, t-test p<0.05) is on record as 1.68 g. In data set [4] (PBS group 1.3 >2 mm tumours per mouse, p<0.05), the “mice with tumours with a size greater than 2 mm” value was determined as 0 mice. Also, in data set [4] (all PBS mice showed bleeding, p<0.05), the “mice showing signs of rectal bleeding during treatment” value is recorded as “two”. In data set [4] (blinded scoring of endoscopy videos, vs PBS), the “inflammation score by colonoscopy, late remission phase” value is on record as “significant lower (and better) inflammation score; also recorded: improves inflammation score”. The “body weight course (FIG. 3)” value in data set [4] (daily rectal recombinant human insulin 2 units/kg) is recorded as “re-gained weight”. Moreover, the “COX2 mRNA expression in colon” value in data set [5] (2 u/kg rectal insulin) and in data set [5] (6 u/kg rectal insulin) was “significantly reduce” throughout. For the same substance, the “Ki67 positive cells per crypt, staining pattern vs PBS” value in data set [6] (2 u/kg rectal insulin) and in data set [6] (6 units/kg rectal insulin) was “No significant difference” each time. For the same substance, in data set [7], the “concentration of insulin receptor mRNA” value is “increased almost two-fold”.
